# Measured values reported in patent US4472397A, “Use of certain 1-substituted-triazolo-benzodiazepines to treat psychoses” (priority 1983, dated 1984).
# “Also recorded” adds a separate entry of the source. Where two headings read alike, the source gives them in different places.
# What was measured:
# [1] = test system: intractable psychosis or schizoaffective illnesses; assay: Preliminary clinical trials in human patients with intractable psychosis or schizoaffective illnesses; format: in vivo; settings: small, but effective and safe dosage amounts
# [2] = test system: serum prolactin; assay: Serum prolactin levels in open-label depression studies; format: in vivo, human
# Text: (Three of the patients had been treated recently with a phenothiazine or amoxapine).
# [3] = test system: schizoaffective patient; assay: Treatment of a human schizoaffective patient with adinazolam (Example 2); format: in vivo; settings: 5 mg bid first day, 5 mg tid second day; over two days; one patient refractory to tricyclic antidepressant and stelazine
# Description: In a human patient, adinazolam was given for two days at a dosage of 5 mg bid (twice a day) the first day and 5 mg tid (three times a day) the second day to a human schizoaffective patient suffering moodcongruent delusions and persecutory auditory hallucinations which had been refractory to four months of therapy with a tricyclic antidepressant and stelazine. The clinician serving the patient found a remarkable approximately fifty percent (50%) improvement in the patient's condition over the two days of treatment with adinazolam.
# [4] = test system: ^3 H-Spiroperidol binding; assay: animal or person; format: in vivo, Male ICR mice; settings: for activity at 50 mg/kg: Mus musculus, sc, read-out: In vivo ^3 H-Spiroperidol % of Control
# Description: The following representative compounds were tested in an in vivo mouse ^3 H-Spiroperidol binding test.
# The test procedure was as follows:
# Male ICR mice weighing 20-22 g were used.
# The animals were dosed with the ^3 H-Spiroperidol solution at 66 micro-Curie/kg in 0.2 ml, by the subcutaneous route. The animals were sacrificed 2 hours later and sections of the brains of the mice were removed with striata and septum and some adjacent cortex. The tissues were weighed after freezing on dry ice and dissolved in 1 ml of Protosol overnight at 35° C. The Protosol was neutralized with 80 μl of 6N hydrochloric acid and 15 ml of ACS scintillation fluid was added. All samples were then counted in a liquid scintillation counter.
# A background of 25 counts per minute (CPM) was subtracted from the counts for each sample counted. The CPM/mg of the tissue was calculated and a statistical t test was used to test the significance of the value.
# [5] = test system: psychotic, including schizophrenic, disorders; assay: Clinical trials in human patients with psychotic, including schizophrenic, disorders (Example 3); format: in vivo
# Description: Clinical trials with the lead compound, adinazolam, in the treatment of human patients for psychotic, including schizophrenic, disorders in the absence of depression are in progress. […] Patients are being maintained on dosages of from 2.5 to 20 mg. of adinazolam qid (four times a day).
# In one patient extrapyramidal side effects persisting from previous medication disappeared with adinazolam therapy.
# [6] = test system: acute psychosis; settings: cited from earlier work
# [7] = Dose 50 mg/kg, subcutaneous, one hour before ^3 H-Spiroperidol, sacrificed 2 hours later
smiles,measurement,setting,value
"CN(C)Cc1nnc2n1-c1ccc(Cl)cc1C(c1ccccc1)=NC2 [Compound 1, 8-chloro-1-[(dimethylamino)methyl]-6-phenyl-4H--s-triazolo[4,3-a][1,4]-benzodiazepine]",symptoms of schizophrenia and affective improvement,[1],improved symptoms of schizophrenia and affective improvement
same,prolactin levels in patients with elevated prolactin at introductory screening,"[2]; four patients (2 males; 2 females), three recently treated with a phenothiazine or amoxapine",the prolactin levels in all four patients normalized
same,effect on serum prolactin levels,[2]; open-label depression studies,no apparent elevating effect on serum prolactin levels
same,improvement in the patient's condition,[3],~50%
same,activity at 50 mg/kg,[4],82%
same,Activity in the ^3 H-Spiroperidol binding test (in words),"[4]; animals, in vivo, listed as adinazolam",active; also recorded: weak but suggested antipsychotic-like activity
same,improvement of patients,"[5]; five patients, 2.5 to 20 mg qid, absence of depression",all experienced moderate or marked improvement
same,extrapyramidal side effects persisting from previous medication,[5]; one patient,disappeared
same,effect of unintentional withdrawal of medication,"[5]; one patient, medication withdrawn for 24 hours",reverted to a psychotic condition
same,effect of reinitiated therapy,"[5]; one patient, reinitiated in the morning after 24 hour withdrawal, that same day",became lucid again that same day
"CN1CCN(c2nnc3n2-c2ccc(Cl)cc2C(c2ccccc2)=NC3)CC1 [Compound 2, 8-chloro-1-(4-methyl-1-piperazinyl)-6-phenyl-4H--s-triazolo[4,3-a][1,4]benzodiazepine]",In vivo ^3 H-Spiroperidol % of Control,"[4]; Dose 50 mg/kg, subcutaneous, one hour before ^3 H-Spiroperidol, sacrificed 2 hours later, 50 mg/kg",73%
same,activity at 50 mg/kg,[4]; [7],69%
"CN(C)CCc1nnc2n1-c1ccc(Cl)cc1C(c1ccccc1)=NC2 [Compound 3, 8-chloro-1-[2-(dimethylamino)ethyl]-6-phenyl-4H--s-triazolo[4,3-a][1,4]benzodiazepine]",activity at 50 mg/kg,[4]; [7],78%
"CN1CCN(c2nnc3n2-c2ccccc2C(c2ccccc2)=NC3)CC1 [Compound 4, 1-(4-methyl-1-piperazinyl)-6-phenyl-4H--s-triazolo[4,3-a][1,4]benzodiazepine]",activity at 50 mg/kg,[4]; [7],59%
"CC1NC(c2ccccc2)c2cc(Cl)ccc2-n2c1nnc2N1CCN(C)CC1 (stereo not shown) [Compound 5, 8-chloro-1-(4-methyl-1-piperazinyl)-4-methyl-5,6-dihydro-6-phenyl-4H--s-triazolo[4,3-a][1,4]benzodiazepine]",In vivo ^3 H-Spiroperidol % of Control,[4]; [7],89%
"CN1CCN(c2nnc3n2-c2ccccc2C(c2ccccc2Cl)=NC3)CC1 [Compound 6, 1-(4-methyl-1-piperazinyl)-6-(2-chlorophenyl)-4H--s-triazolo[4,3-a][1,4]benzodiazepine]",activity at 50 mg/kg,[4]; [7],65%
"CCN1CCN(c2nnc3n2-c2ccccc2C(c2ccccc2Cl)=NC3)CC1 [Compound 7, 1-(4-ethyl-1-piperazinyl)-6-(2-chlorophenyl)-4H--s-triazolo[4,3][1,4]benzodiazepine]",activity at 50 mg/kg,[4]; [7],72%
CN1C(=O)CN=C(c2ccccc2)c2cc(Cl)ccc21 [diazepam],effectiveness versus haloperidol in acute psychosis,[6]; over 24 hours of treatment,at least as effective as haloperidol
same,sedation effects,[6]; treatment of acute psychosis,marked sedation effects
